# Assay results as given in patent US20230040386A1, “URSODEOXYCHOLIC ACID-CONTAINING AGENT FOR TREATING OR PREVENTING PRESBYOPIA” (priority 2018, published 2023).
# Columns and labels:
# Type in all cases: in vivo, C57BL/6J mice
# [1] = tested on: lens; assay: Pharmacological Test 3: lens elasticity after instillation of ursodeoxycholic acid (free form)
# Description: A vehicle comprising 0.1% (w/v) of ethyl pyruvate, 0.269% (w/v) of sodium dihydrogenphosphate monohydrate (NaH2PO4H2O), 0.433% (w/v) of disodium hydrogenphosphate (Na2HPO4), 0.2% (w/v) of hydroxypropyl methylcellulose, and 0.5% (w/v) of NaCl was prepared. Ursodeoxycholic acid was sonicated with the addition of the vehicle to prepare a 1.5% (w/v) suspension. The resulting 1.5% (w/v) suspension was diluted with the vehicle to prepare a 0.5% (w/v) suspension. Further, the resulting 0.5% (w/v) suspension was diluted with the vehicle to prepare a 0.15% (w/v) suspension. The total amount of each sample to be used in one day was prepared before use. EV06 was sonicated with the addition of the vehicle to prepare a 1.5% (w/v) solution. The total amount of the sample to be used in one day was prepared before use. 1) Each test sample (2.5 μL/eye) was instilled into the right eye of 8-month-old C57BL/6J mice with a Pipetman 3 times per day (around 9:00, 13:00 and 17:00) for 12 to 15 days. 2) After the final instillation, the mice were euthanized by carbon dioxide inhalation, and then the eyeballs were extracted and rinsed with Hank's balanced salt solution (HBSS). 3) The sclera near the optic nerve was cut with a razor, the lens was removed through the incision, and the removed lens was immersed in HBSS. 4) The lens was placed on a glass slide, and an all-in-one fluorescence microscope BZ-9000 (Keyence) was used to capture an image of the lens (Image a). 5) Next, one cover glass (Corning^(registered trade mark) 22×22 mm Square) was placed on the lens, and an image in which the thickness of the lens changed due to the weight was similarly captured (image b). 6) A change in the lens diameter was calculated from Equation 1 wherein the lens diameter of Image a is subtracted from the lens diameter of Image b, as described below. Then, the lens elasticity improvement of each sample group compared with the vehicle control group was calculated from Equation 2 described below. The mean of the vehicle control group was based on 5 eyes, the mean of each ursodeoxycholic acid sample group was based on 10 eyes, and the mean of the EV06 sample group was based on 10 eyes. Change in lens diameter=Lens diameter in Image b of each test sample−Lens diameter in Image a of each test sample (Equation 1) Lens elasticity improvement of each sample group=Mean change in lens diameter of each Test sample group−Mean change in lens diameter of Vehicle control group (Equation 2)
# [2] = tested on: lens; assay: Pharmacological Test 2: lens elasticity after instillation of sodium ursodeoxycholate; details: for Lens elasticity improvement: 2.5 μL/eye, 3 times per day, 12 to 15 days, vs vehicle control
# Description: A vehicle comprising 0.1% (w/v) of ethyl pyruvate, 0.269% (w/v) of sodium dihydrogenphosphate monohydrate (NaH2PO4H2O), 0.433% (w/v) of disodium hydrogenphosphate (Na2HPO4), 0.2% (w/v) of hydroxypropyl methylcellulose, 0.5% (w/v) of NaCl was prepared. Sodium ursodeoxycholate was sonicated with the addition of the vehicle to prepare a 1.5% (w/v) suspension. The resulting 1.5% (w/v) suspension was diluted with the vehicle to prepare a 0.5% (w/v) suspension. Further, the resulting 0.5% (w/v) suspension was diluted with the vehicle to prepare a 0.15% (w/v) suspension. The total amount of each sample to be used in one day was prepared before use. EV06 was sonicated with the addition of the vehicle to prepare a 1.5% (w/v) solution. The total amount of the sample to be used in one day was prepared before use. 1) Each test sample (2.5 μL/eye) was instilled into the right eye of 8-month-old C57BL/6J mice with a Pipetman 3 times per day (around 9:00, 13:00 and 17:00) for 12 to 15 days. 2) After the final instillation, the mice were euthanized by carbon dioxide inhalation, and then the eyeballs were extracted and rinsed with Hank's balanced salt solution (HBSS)). 3) The sclera near the optic nerve was cut with a razor, the lens was removed through the incision, and the removed lens was immersed in HBSS. 4) The lens was placed on a glass slide, and an all-in-one fluorescence microscope BZ-9000 (Keyence) was used to capture an image of the lens (Image a). 5) Next, one cover glass (Corning^(registered trade mark) 22×22 mm Square) was placed on the lens, and an image in which the thickness of the lens changed due to the weight was similarly captured (Image b). 6) A change in the lens diameter was calculated from Equation 1 wherein the lens diameter of Image a is subtracted from the lens diameter of Image b, as described below. Then, the lens elasticity improvement of each sample group compared with the vehicle control group was calculated from Equation 2 described below. The mean of the vehicle control group was based on 5 eyes, the mean of each sodium ursodeoxycholate sample group was based on 10 eyes, and the mean of the EV06 sample group was based on 10 eyes. Change in lens diameter Lens diameter in image b of each test sample−Lens diameter in Image a of each test sample (Equation 1) Lens elasticity improvement of each sample group=Mean change in lens diameter of each Test sample group−Mean change in lens diameter of Vehicle control group (Equation 2)
# [3] = tested on: lens; assay: Pharmacological Test 8: lens elasticity, glycoursodeoxycholic acid once-daily for 7 days
# Description: (§1) A vehicle comprising 0.1% (w/v) of ethyl pyruvate, 0.269% (w/v) of sodium dihydrogenphosphate monohydrate (NaH2PO4H2O), 0.433% (w/v) of disodium hydrogenphosphate (Na2HPO4), 0.2% (w/v) of hydroxypropyl methylcellulose, 0.5% (w/v) of NaCl was prepared. Glycoursodeoxycholic acid was sonicated with the addition of the vehicle to prepare a 1.0% (w/v) suspension. The total amount of each sample to be used in one day was prepared before use. 1) Each test sample (2.5 μL/eye) was instilled into both eyes of 8-month-old C57BL/6J mice with a Pipetman once per day (QD; around 13:30) for 7 days. 2) Twenty-four hours after the final instillation, the mice were euthanized by carbon dioxide inhalation, and then the eyeballs were extracted and rinsed with Hank's balanced salt solution (HBSS). 3) The sclera near the optic nerve was cut with a razor, the lens was removed through the incision, and the removed lens was immersed in HBSS. 4) The lens was placed on a glass slide, and an all-in-one fluorescence microscope BZ-9000 (Keyence) was used to capture an image of the lens (image a). […] 6) A change in the lens diameter was calculated from Equation 1 wherein the lens diameter of Image a is subtracted from the lens diameter of Image b, as described below. Then, the lens elasticity improvement of each sample group compared with the vehicle control group was calculated from Equation 2 described below. […]
# [4] = tested on: lens; assay: Pharmacological Test 7: lens elasticity, tauroursodeoxycholic acid once-daily for 7 days
# Description: as §1, with “Tauroursodeoxycholic” for “Glycoursodeoxycholic”, “dissolved” for “sonicated”, “solution.” for “suspension.”, “7-month-old” for “8-month-old”, “(Image” for “(image”
# [5] = tested on: lens; assay: Pharmacological Test 6: lens elasticity, ursodeoxycholic acid methyl ester once-daily for 7 days; details: for Lens elasticity improvement: QD, 7-month-old mice, vs vehicle control
# Description: A vehicle comprising 0.1% (w/v) of ethyl pyruvate, 0.269% (w/v) of sodium dihydrogenphosphate monohydrate […], 0.433% (w/v) of disodium hydrogenphosphate (Na2HPO4), 0.2% (w/v) of hydroxypropyl methylcellulose, 0.5% (w/v) of NaCl was prepared. Ursodeoxycholic acid methyl ester was sonicated with the addition of the vehicle to prepare a 0.3% (w/v) suspension, a 1.0% (w/v) suspension and a 3.0% (w/v) suspension. The total amount of each sample to be used in one day was prepared before use. 1) Each test sample (2.5 μL/eye) was instilled into both eyes of 7-month-old C57BL/6J mice with a Pipetman once per day (QD; around 13:30) for 7 days. 2) Twenty-four hours after the final instillation, the mice were euthanized by carbon dioxide inhalation, and then the eyeballs were extracted and rinsed with Hank's balanced salt solution (HBSS). 3) The sclera near the optic nerve was cut with a razor, the lens was removed through the incision, and the removed lens was immersed in HBSS. 4) The lens was placed on a glass slide, and an all-in-one fluorescence microscope BZ-9000 (Keyence) was used to capture an image of the lens (Image a). 5) Next, one cover glass (Corning^(registered trade mark) 22×22 mm Square) was placed on the lens, and an image in which the thickness of the lens changed due to the weight was similarly captured (Image b). 6) A change in the lens diameter was calculated from Equation 1 wherein the lens diameter of Image a is subtracted from the lens diameter of Image b, as described below. Then, the lens elasticity improvement of each sample group compared with the vehicle control group was calculated from Equation 2 described below. Each mean of the vehicle control group and each ursodeoxycholic acid methyl ester sample group was based on 9 or 10 eyes. Change in lens diameter=Lens diameter in Image b of each test sample−Lens diameter in Image a of each test sample (Equation 1) Lens elasticity improvement of each sample group=Mean change in lens diameter of each Test sample group−Mean change in lens diameter of Vehicle control group (Equation 2)
# [6] = 1.5% sample group vs EV06 at the same concentration
smiles,measurement,setting,value
C[C@H](CCC(=O)[O-])[C@H]1CC[C@H]2[C@@H]3[C@@H](O)C[C@@H]4C[C@H](O)CC[C@]4(C)[C@H]3CC[C@]12C.[Na+] [sodium ursodeoxycholate],"Lens elasticity improving effect compared with EV06, in words",[1]; [6],stronger than that of EV06
same,"Lens elasticity improving effect, in words","[1]; all of the 0.15%, 0.5% and 1.5% sample groups (Table 3)",potent lens elasticity improving effect
same,Lens elasticity improvement,[2]; 0.15% (w/v) sample,26.5 μm
same,Lens elasticity improvement,[2]; 0.5% (w/v) sample,34.8 μm
same,Lens elasticity improvement,[2]; 1.5% (w/v) sample,44.7 μm
same,"Lens elasticity improving effect compared with EV06, in words",[2]; [6],stronger than that of EV06
same,"Lens elasticity improving effect, in words","[2]; all of the 0.15%, 0.5% and 1.5% sample groups",potent lens elasticity improving effect
"C[C@H](CCC(=O)NCC(=O)O)[C@H]1CC[C@H]2[C@@H]3[C@@H](O)C[C@@H]4C[C@H](O)CC[C@]4(C)[C@H]3CC[C@]12C [glycoursodeoxycholic acid, N-(3α,7β-Dihydroxy-5β-cholan-24-oyl)glycine]",Lens elasticity improvement,"[3]; 1% (w/v) suspension, QD, 8-month-old mice, vs vehicle control",20.1 μm
same,"Lens elasticity improvement, in words",[3]; 1% sample instilled once-daily,potent lens elasticity improvement
"C[C@H](CCC(=O)NCCS(=O)(=O)O)[C@H]1CC[C@H]2[C@@H]3[C@@H](O)C[C@@H]4C[C@H](O)CC[C@]4(C)[C@H]3CC[C@]12C [tauroursodeoxycholic acid, 3α,7β-Dihydroxy-5β-cholan-24-oic Acid N-(2-Sulfoethyl)amide]",Lens elasticity improvement,"[4]; 1% (w/v) solution, QD, 7-month-old mice, vs vehicle control",29.7 μm
same,"Lens elasticity improvement, in words",[4]; 1% sample instilled once-daily,potent lens elasticity improvement
COC(=O)CC[C@@H](C)[C@H]1CC[C@H]2[C@@H]3[C@@H](O)C[C@@H]4C[C@H](O)CC[C@]4(C)[C@H]3CC[C@]12C [ursodeoxycholic acid methyl ester],Lens elasticity improvement,[5]; 0.3% (w/v) sample,13.2 μm
same,Lens elasticity improvement,[5]; 1% (w/v) sample,33.0 μm
same,"Lens elasticity improvement, in words",[5]; 1% and 3% samples instilled once-daily,potent lens elasticity improvement
same,Lens elasticity improvement,[5]; 3% (w/v) sample,46.5 μm
